According to patent US10888547B2, “Amorphous and a crystalline form of genz 112638 hemitartrate as inhibitor of glucosylceramide synthase” (Genzyme Corporation, priority 2009, dated 2021):

Tests used:
[1] = system: Gaucher mice (D409V/null); test: Separate and sequential enzyme and substrate reduction therapy in Gaucher mice; assay type: in vivo, mouse
Description: Procedures involving animals were reviewed and approved by the Institutional Animal Care and Use Committee (IACUC) at Genzyme Corporation following the guidelines issued by the Association for Assessment and Accreditation of Laboratory Animal Care (AAALAC). […] The study had 6 groups of mice with group A being sacrificed after 2 weeks to provide baseline levels of tissue glucosylceramide. Groups B, C, and D all received recombinant human glucocerebrosidase (Genzyme Corp., Cambridge, Mass.) (10 mg/kg) intravenously via a tail-vein (100 μL) every 2 days for a total of 8 injections. Group B was sacrificed at the end of this regimen (at the same time as group A) to provide enzyme-reduced levels of tissue glucosylceramide. Groups D and E were both fed Formula (I) Hemitartrate (Genzyme Corp., Cambridge, Mass.) as a component of the pellet food diet. The drug was formulated at 0.075% (w/w) in standard 5053 mouse chow (TestDiet, Richmond, Ind.) and provided ad libitum. […] Group F received no treatment and was sacrificed along with groups C, D and E 12 weeks after the start of the study. Food consumption and mouse weights were monitored three times per week to determine drug intake and the potential impact of the drug on overall health. Animals were killed by carbon dioxide inhalation and their tissues harvested immediately. Half of each tissue was snap frozen on dry ice and stored at −80° C. until ready for further processing. The other half was processed for histological analysis.
Glucosylceramide levels were quantified by mass spectrometry as described previously (see K. McEachern, et al., J. Gene. Med. 8 (2006) 719-729; T. Doering, J. Biol. Chem. 274 (1999) 11038-11045, the entire teachings of both are incorporated herein by reference). A known mass of tissue was homogenized in 2:1 (v/v) chloroform:methanol and incubated at 37° C. for 15 min. Samples were centrifuged and the supernatants were extracted with 0.2 volumes of water overnight at 4° C. The samples were centrifuged, the aqueous phase was discarded, and the organic phase was dried down to a film under nitrogen. For electrospray ionization mass spectrometry (ESI/MS) analysis, tissue samples were reconstituted to the equivalent of […] original tissue weight in 1 ml chloroform:methanol (2:1, v/v) and vortexed for 5 min. Aliquots (40 μL) of each sample were delivered to Waters total recovery vials and 50 μL of a 10 μg/mL d3-C16-GL-1 internal standard (Matreya, Inc., Pleasant Gap, Pa.) was added. Samples were dried under nitrogen and reconstituted with 200 μL of 1:4 (v/v) DMSO:methanol. ESI/MS analysis of glucosylceramides of different carbon chain lengths was performed on a Waters alliance HPLC (Separation Module 2695) coupled to a Micromass Quattro Micro system equipped with an electrospray ion source. Lipid extract samples (20 μL) were injected onto a C8 column ([…] i.d; Phenomenex, Torrance, Calif.) at 45° C. and eluted with a gradient of 50 to 100% acetonitrile (2 mM ammonium acetate, 0.1% formic acid) at 0.5 mL/min. The first 0.5 min. was held at 50% organic and then quickly switched to 100% for the final 3.5 min. The source temperature was held constant at 150° C. and nitrogen was used as the desolvation gas at a flow rate of 670 L/h. The capillary voltage was maintained at 3.80 KV with a cone voltage of 23 V, while the dwell time for each ion species was 100 ms. Spectra were acquired by the MRM mode to monitor eight dominant isoforms (C16:0, C18:0, C20:0, C22:1, C22:0, C22:1-OH, C24:1, and C24:0). Quantitation of glucosylceramide was based on the sum of these eight isoforms relative to the internal standard, with a calibration curve ranging from 0.1 to 10 μg/mL.
For histological analysis, tissues were fixed in zinc formalin (Electron Microscopy Sciences, Hatfield, Pa.) at room temperature for 24 h, then stored in PBS at 4° C. until ready for further processing. […]

D409V/null mice = test: Oral gavage efficacy study in Gaucher D409V/null mice; assay type: in vivo, mouse
Fabry-Rag mice = test: Combination ERT/SRT therapy of Fabry-Rag mice; assay type: in vivo, mouse; details: ERT 1 mg/kg α-galactosidase A i.v., SRT 300 mg/kg daily in diet
Method: For the combination therapy studies, Fabry-Rag mice were put on study at 3 months old (treatment model). Mice in group A received intravenous injections of recombinant human alpha-galactosidase A (Genzyme Corp.) at a dose of 1 mg/kg every 2 months (i.e. 3, 5, 7 and 9 months old). Group B received the same intravenous enzyme doses plus it received Formula (I) Hemitartrate (Genzyme Corp., Cambridge, Mass.) as a component of the pellet food diet. The drug was formulated at 0.15% (w/w) in standard 5053 mouse chow (TestDiet, Richmond, Ind.) and provided ad libitum. […] Group C received enzyme injections every 4 months (i.e. 3 and 7 months old) and was on the same drug-in-food diet as group B. Group D received only the drug-in-food diet (same as groups B and C). Group E was untreated Fabry-Rag mice and group F were wild-type controls.
Quantitation of GL-3 was by Tandem Mass Spectrometry essentially as for GL-1.
Hot plate Assay was performed as described previously (Ziegler, R J et al. Molec. Ther. 15(3), 492-500 (2007).
Beginning at three-months of age, the mice were subjected to a schedule of behavioral tests (i.e. hot-plate assay) and biochemical tests (i.e., GL-3 level analysis in tissues/blood/urine), as shown in FIG. 10.

[2] = Approximate solubility in organic solvents from solvent addition; assay type: physicochemical; details: organic solvent or mixture, thermodynamic from solid, room temperature (20-25° C.)
Method: A weighed sample (usually 20 mg) was treated with aliquots of the test solvent. Aliquots were typically 100-200 μL. Between solvent additions, the mixture was shaken or sonicated. When the solids dissolved, as judged by visual inspection, the solution was allowed to evaporate under ambient conditions in an open vial covered with aluminum foil perforated with pinholes. Solubilities were estimated from these experiments based on the total solvent added to obtain a clear solution.

[3] = group D: 2 weeks enzyme, then 150 mg/kg/day in food for 10 weeks
[4] = group E: 150 mg/kg/day in food alone for 12 weeks
[5] = mouse, in vivo, po, 150 mg/kg/day

CCCCCCCC(=O)N[C@H](CN1CCCC1)[C@H](O)c1ccc2c(c1)OCCO2 [Formula (I) Hemitartrate]
liver histopathology, CD68-positive Gaucher cells ([1]; 2 weeks enzyme, then substrate reduction therapy for 10 weeks): increase in Gaucher cells was negated | weight gain versus regular chow ([1]; chow containing 150 mg/kg/day): no discernible differences in weight gain | liver histopathology, CD68-positive Gaucher cells ([1]; drug alone for 12 weeks): reduced accumulation of the substrate | lung GL1 levels versus untreated controls (F) ([1]; group D: 2 weeks enzyme, then 150 mg/kg/day in chow for 10 weeks): significantly lower | liver GL1 levels versus untreated controls (F) [1, 3]: significantly lower | splenic GL1 levels versus untreated control (F) [1, 3]: significantly lower | liver GL-1 levels versus untreated, age-matched controls (F) [1, 4]: the difference was not significant | pulmonary GL1 levels versus untreated controls (F) [1, 4]: effective in lowering pulmonary GL1 levels | splenic GL1 levels versus untreated controls (F) [1, 4]: the difference was not significant | gastro-intestinal issues (D409V/null mice; effective dose of 150 mg/kg/day): no observable gastro-intestinal issues | glucosylceramide levels versus age-matched vehicle-treated controls (D409V/null mice; mouse, in vivo): dose-dependent reduction | body weight versus untreated mice (D409V/null mice; [5]): no significant deviation | effects on well-being or feeding habits (D409V/null mice; [5]): no notable effects | frequency of Gaucher cells in the liver versus untreated mice (D409V/null mice; [5]): significantly lower | glucosylceramide levels in liver, % lower than in vehicle-treated mice (D409V/null mice; [5]): 60% | glucosylceramide levels in liver, lung and spleen versus start of the study (D409V/null mice; [5]): had not increased | glucosylceramide levels in lung, % lower than in vehicle-treated mice (D409V/null mice; [5]): 50% | glucosylceramide levels in spleen, % lower than in vehicle-treated mice (D409V/null mice; [5]): 40% | glucosylceramide levels in the liver, % of those in the controls (D409V/null mice; [5]): 60% | glucosylceramide levels in the lung, % of those in the controls (D409V/null mice; [5]): 40% | glucosylceramide levels in the spleen, % of those in the controls (D409V/null mice; [5]): 75% | onset of heat-insensitivity (Fabry-Rag mice): delays onset | urine GL-3 levels (Fabry-Rag mice): reduces | blood GL-3 levels (Fabry-Rag mice; from 3 months of age): does not | solubility ([2]; Acetone): < 5000 µg/mL | solubility ([2]; Acetonitrile): < 5000 µg/mL | solubility ([2]; Dichloromethane): 100000 µg/mL | solubility ([2]; Ethanol): 29000 µg/mL | solubility ([2]; Ethyl Acetate): < 5000 µg/mL | solubility ([2]; Isopropyl alcohol): < 5000 µg/mL | solubility ([2]; Methanol): > 200000 µg/mL | solubility ([2]; Methyl t-butyl ether (TBME)): < 5000 µg/mL | solubility ([2]; Tetrahydrofuran (THF)): < 5000 µg/mL | solubility ([2]; Toluene): < 5000 µg/mL | solubility ([2]; p-Dioxane): < 5000 µg/mL
